pIC50: −log10 of the molar value. Structures can show the parent of a compound that is named as a salt. Bounds are passed on as bounds.

For one experiment, the target named is T1, p38 alpha (Homo sapiens, UniProt Q16539).
T1 construct: purchased Invitrogen PV3304
Put plainly: P38 alpha enzyme inhibition assay (Alphascreen kinase activity assay). It counts as biochemical. Particulars: 100 pM p38 alpha, 2 hours preincubation at 25° C., 250 μM ATP, ATF-2 fusion protein; read-out: p38α inhibition. The essentials:
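100 pM p38 alpha preincubated 2 h at 25 °C with compound and 0.3 μg/ml ATF-2 fusion substrate (HEPES pH 7.5, MgCl2, 1% DMSO). Reaction started with 250 μM ATP, run 1 h at 25 °C, stopped with EDTA; phospho-ATF2 detected by AlphaScreen luminescence. IC50 from concentration-response curves.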

For experiment [1], the system named is Peripheral Blood Mononuclear Cells (PBMCs), TNFα release. Put plainly: LPS-stimulated PBMC TNFα release assay. It counts as cell-based. Particulars: human PBMC, LPS (10 ng/ml), 18 h, compound 1 h before LPS; read-out: LPS-stimulated PBMC TNFα release inhibition. Here is the method: LPS-Stimulated PBMC TNFα Release Assay
Peripheral Blood Mononuclear Cells (PBMCs) were isolated from healthy human volunteer blood using a standard density gradient centrifugation technique. Citrated blood was placed onto Histopaque™ and centrifuged. The PBMCs were removed from the density gradient interface and washed in phosphate buffered saline (PBS). The PBMCs were suspended in RPMI 1640 medium (without serum), dispensed into a 96-well plate and incubated at 37° C. for 3 h in a humidified incubator. After incubation, the medium was replaced (with medium containing 1% foetal bovine serum) and the plate incubated at 37° C., for 1 h, in the presence of test compound or the appropriate vehicle. LPS (10 ng/ml), or an appropriate vehicle control, was then added to the cells and the plate returned to the incubator for 18 h. Cell-free supernatants were removed and assayed for TNFα levels using MSD plates on the Sector Imager 6000 (MesoScale).
A dose response curve to each test compound was performed and the effect of compound in each experiment was expressed as a percentage inhibition of the control TNFα release. Dose response curves were plotted and compound potency (IC50) was determined. Compounds were tested in at least three separate experiments.

T1 sequence (Q16539 whole entry): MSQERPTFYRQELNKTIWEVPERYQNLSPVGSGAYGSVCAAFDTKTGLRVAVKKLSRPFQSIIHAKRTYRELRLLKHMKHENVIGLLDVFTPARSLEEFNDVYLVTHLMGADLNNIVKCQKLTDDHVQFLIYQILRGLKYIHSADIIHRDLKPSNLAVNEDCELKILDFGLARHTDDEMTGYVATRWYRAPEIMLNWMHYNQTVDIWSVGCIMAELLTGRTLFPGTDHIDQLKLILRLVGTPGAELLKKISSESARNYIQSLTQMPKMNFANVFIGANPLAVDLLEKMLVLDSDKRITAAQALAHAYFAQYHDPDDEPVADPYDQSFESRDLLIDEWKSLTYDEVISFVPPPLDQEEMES

As for `CC(=O)OCc1nc(NC(=O)N[C@H]2CC[C@@H](Oc3ccc4nnc([C@]5(C)CCCN5C)n4c3)c3ccccc32)cc(C(C)(C)C)n1` [Example 26, (4-(tert-Butyl)-6-(3-((1S,4R)-4-((3-((S)-1,2-dimethylpyrrolidin-2-yl)-[1,2,4]triazolo[4,3-a]pyridin-6-yl)oxy)-1,2,3,4-tetrahydronaphthalen-1-yl)ureido)pyrimidin-2-yl)methyl acetate], the figures for the pIC50 (at p38 alpha; in experiment [1]) were 8.00 to 9.00 and 8.30 to 9.00, respectively.

For the molecule `CCC(CC)c1nnc2ccc(O[C@@H]3CC[C@H](NC(=O)Nc4cc(C(C)(C)C)nc(C(=O)NCCN5CCOCC5)n4)c4ccccc43)cn12` [Example 69, 4-(tert-butyl)-N-(2-morpholinoethyl)-6-(3-((1S,4R)-4-((3-(pentan-3-yl)-[1,2,4]triazolo[4,3-a]pyridin-6-yl)oxy)-1,2,3,4-tetrahydronaphthalen-1-yl)ureido)pyrimidine-2-carboxamide], the results for the pIC50 (at p38 alpha; in experiment [1]) were above 9.00 and 8.30 to 9.00, respectively.

For `COCC(C)(C)c1nnc2ccc(O[C@@H]3CC[C@H](NC(=O)Nc4cc(C(C)(C)C)nc(C(=O)NCCN(C)CCO)n4)c4ccccc43)cn12` [Example 123, 4-(tert-butyl)-N-(2-((2-hydroxyethyl)(methyl)-amino)ethyl)-6-(3-((1S,4R)-4-((3-(1-methoxy-2-methylpropan-2-yl)-[1,2,4]triazolo[4,3-a]pyridin-6-yl)oxy)-1,2,3,4-tetrahydronaphthalen-1-yl)ureido)pyrimidine-2-carboxamide], the pIC50 is above 9.00 on p38 alpha and 8.30 to 9.00 in experiment [1].

`CC(C)(C)c1cc(NC(=O)N[C@H]2CC[C@@H](Oc3ccc4nnc(C(C)(C)C)n4c3)c3ccccc32)nc(C(=O)NCCN2CC[C@H](O)C2)n1` [Example 94, 4-(tert-butyl)-6-(3-((1S,4R)-4-((3-(tert-butyl)-[1,2,4]triazolo[4,3-a]pyridin-6-yl)oxy)-1,2,3,4-tetrahydronaphthalen-1-yl)ureido)-N-(2-((S)-3-hydroxypyrrolidin-1-yl)ethyl)pyrimidine-2-carboxamide]: the pIC50 on p38 alpha is above 9.00; in experiment [1] it was below 8.30.

`CN(CCO)CCNC(=O)c1cc(C(C)(C)C)cc(NC(=O)N[C@H]2CC[C@@H](Oc3ccc4nnc(C(C)(C)C)n4c3)c3ccccc32)n1` [Example 208, 4-(tert-butyl)-6-(3-((1S,4R)-4-((3-(tert-butyl)-[1,2,4]triazolo[4,3-a]pyridin-6-yl)oxy)-1,2,3,4-tetrahydronaphthalen-1-yl)ureido)-N-(2-((2-hydroxyethyl)(methyl)-amino)ethyl)picolinamide formate salt]: the pIC50 is above 9.00 at p38 alpha and below 8.30 in experiment [1].

For the molecule `COC(C)(C)c1nnc2ccc(O[C@@H]3CC[C@H](NC(=O)Nc4cc(C(C)(C)C)nc(C(=O)NCCN(C)CCO)n4)c4ccccc43)cn12` [Example 125, 4-(tert-butyl)-N-(2-((2-hydroxyethyl)(methyl)-amino)ethyl)-6-(3-((1S,4R)-4-((3-(2-methoxypropan-2-yl)-[1,2,4]triazolo[4,3-a]pyridin-6-yl)oxy)-1,2,3,4-tetrahydronaphthalen-1-yl)ureido)pyrimidine-2-carboxamide], the pIC50 is 8.00 to 9.00 on p38 alpha and below 8.30 in experiment [1].

On to `CN(C)C(C)(C)CNC(=O)c1nc(NC(=O)N[C@H]2CC[C@@H](Oc3ccc4nnc(C5(C)CCCC5)n4c3)c3ccccc32)cc(C(C)(C)C)n1` [Example 183, 4-(tert-butyl)-N-(2-(dimethylamino)-2-methylpropyl)-6-(3-((1S,4R)-4-((3-(1-methylcyclopentyl)-[1,2,4]triazolo[4,3-a]pyridin-6-yl)oxy)-1,2,3,4-tetrahydronaphthalen-1-yl)ureido)pyrimidine-2-carboxamide], for which the figures for the pIC50 (on p38 alpha; in experiment [1]) were above 9.00 and 8.30 to 9.00, respectively.

As for `COCC(C)(C)c1nnc2ccc(O[C@@H]3CC[C@H](NC(=O)Nc4cc(C(C)(C)C)nc(C(=O)NCC5(N(C)C)CCC5)n4)c4ccccc43)cn12` [Example 158, 4-(tert-Butyl)-N-((1-(dimethylamino)-cyclobutyl)methyl)-6-(3-((1S,4R)-4-((3-(1-methoxy-2-methylpropan-2-yl)-[1,2,4]triazolo[4,3-a]pyridin-6-yl)oxy)-1,2,3,4-tetrahydronaphthalen-1-yl)ureido)pyrimidine-2-carboxamide formate salt], the pIC50 was above 9.00 on p38 alpha and 8.30 to 9.00 in experiment [1].

`CN(C)CCC(=O)NCc1nc(NC(=O)N[C@H]2CC[C@@H](Oc3ccc4nnc(C(C)(C)C)n4c3)c3ccccc32)cc(C(C)(C)C)n1` [Example 127, N-((4-(tert-butyl)-6-(3-((1S,4R)-4-((3-(tert-butyl)-[1,2,4]triazolo[4,3-a]pyridin-6-yl)oxy)-1,2,3,4-tetrahydronaphthalen-1-yl)ureido)pyrimidin-2-yl)methyl)-3-(dimethylamino)-propanamide]: the pIC50 on p38 alpha is above 9.00; in experiment [1] it was below 8.30.

In the case of `CN(C)CCNC(=O)c1cc(C(C)(C)C)cc(NC(=O)N[C@H]2CC[C@@H](Oc3ccc4nnc(C(C)(C)C)n4c3)c3ccccc32)n1` [Example 58, 4-(tert-Butyl)-6-(3-((1S,4R)-4-((3-(tert-butyl)-[1,2,4]triazolo[4,3-a]pyridin-6-yl)oxy)-1,2,3,4-tetrahydronaphthalen-1-yl)ureido)-N-(2-(dimethylamino)ethyl)picolinamide], the figures for the pIC50 (on p38 alpha; in experiment [1]) were above 9.00 and 8.30 to 9.00, respectively.

On to `COCC(C)(C)c1nnc2ccc(O[C@@H]3CC[C@H](NC(=O)Nc4cc(C(=O)NCC(C)(C)N(C)C)nc(C(C)(C)C)c4)c4ccccc43)cn12` [Example 196, 6-(tert-butyl)-N-(2-(dimethylamino)-2-methylpropyl)-4-(3-((1S,4R)-4-((3-(1-methoxy-2-methylpropan-2-yl)-[1,2,4]triazolo[4,3-a]pyridin-6-yl)oxy)-1,2,3,4-tetrahydronaphthalen-1-yl)ureido)picolinamide], for which the figures for the pIC50 (on p38 alpha; in experiment [1]) were 8.00 to 9.00 and below 8.30, respectively.

On to `CN(C)CCNC(=O)c1nc(NC(=O)N[C@H]2CC[C@@H](Oc3ccc4nnc(C5(C)COC5)n4c3)c3ccccc32)cc(C(C)(C)C)n1` [Example 55, 4-(tert-Butyl)-N-(2-(dimethylamino)ethyl)-6-(3-((1S,4R)-4-((3-(3-methyloxetan-3-yl)-[1,2,4]triazolo[4,3-a]pyridin-6-yl)oxy)-1,2,3,4-tetrahydronaphthalen-1-yl)ureido)pyrimidine-2-carboxamide], for which the pIC50 at p38 alpha is 8.00 to 9.00; in experiment [1], below 8.30.

For the molecule `C[C@@H]1CCC[C@H](C)N1c1nnc2ccc(O[C@@H]3CC[C@H](NC(=O)Nc4cc(C(C)(C)C)nc(C(=O)NCCN(C)C)n4)c4ccccc43)cn12` [Example 20, 4-(tert-Butyl)-N-(2-(dimethylamino)ethyl)-6-(3-((1S,4R)-4-((3-((2R,6S)-2,6-dimethylpiperidin-1-yl)-[1,2,4]triazolo[4,3-a]pyridin-6-yl)oxy)-1,2,3,4-tetrahydronaphthalen-1-yl)ureido)pyrimidine-2-carboxamide], the pIC50 is above 9.00 on p38 alpha and 8.30 to 9.00 in experiment [1].

Source of the values: patent US10364245B2 (CHIESI FARMACEUTICI S.p.A., priority 2017, dated 2019).
